Source: ChEMBL document CHEMBL1135318 (Bioorg Med Chem Lett, 2002)

Tests used:
[1] = target: T1, Muscarinic acetylcholine receptor M3 (Homo sapiens, UniProt P20309); assay: Displacement of [3H]N-methylscopolamine from membrane preparation from CHO-K1 cells for Muscarinic acetylcholine receptor M3; value given as 20-50%; assay type: cell membranes; conditions: concentration not given here
Target sequence in this assay (P20309 whole entry, looked up): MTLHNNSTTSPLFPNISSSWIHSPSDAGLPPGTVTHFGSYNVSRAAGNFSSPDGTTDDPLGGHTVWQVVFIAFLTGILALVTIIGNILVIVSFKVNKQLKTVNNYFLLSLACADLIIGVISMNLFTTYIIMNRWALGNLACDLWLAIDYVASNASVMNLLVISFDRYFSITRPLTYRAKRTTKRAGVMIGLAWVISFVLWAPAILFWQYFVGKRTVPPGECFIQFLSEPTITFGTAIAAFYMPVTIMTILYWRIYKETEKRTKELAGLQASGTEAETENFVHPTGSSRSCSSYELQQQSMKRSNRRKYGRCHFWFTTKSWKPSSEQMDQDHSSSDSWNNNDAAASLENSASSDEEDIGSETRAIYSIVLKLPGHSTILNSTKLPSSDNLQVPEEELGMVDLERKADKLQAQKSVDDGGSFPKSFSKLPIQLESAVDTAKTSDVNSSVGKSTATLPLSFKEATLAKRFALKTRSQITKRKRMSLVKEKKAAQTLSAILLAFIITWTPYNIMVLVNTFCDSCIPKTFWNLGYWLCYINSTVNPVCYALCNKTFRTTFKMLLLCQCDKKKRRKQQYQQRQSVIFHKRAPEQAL

[2] = target: T2, Muscarinic acetylcholine receptor M2 (Homo sapiens) (UniProt P08172); assay: Displacement of [3H]N-methylscopolamine from membrane preparation from CHO-K1 cells for Muscarinic acetylcholine receptor M2; value given as 20-50%; assay type: cell membranes; conditions: concentration not given here
T2 sequence (whole entry): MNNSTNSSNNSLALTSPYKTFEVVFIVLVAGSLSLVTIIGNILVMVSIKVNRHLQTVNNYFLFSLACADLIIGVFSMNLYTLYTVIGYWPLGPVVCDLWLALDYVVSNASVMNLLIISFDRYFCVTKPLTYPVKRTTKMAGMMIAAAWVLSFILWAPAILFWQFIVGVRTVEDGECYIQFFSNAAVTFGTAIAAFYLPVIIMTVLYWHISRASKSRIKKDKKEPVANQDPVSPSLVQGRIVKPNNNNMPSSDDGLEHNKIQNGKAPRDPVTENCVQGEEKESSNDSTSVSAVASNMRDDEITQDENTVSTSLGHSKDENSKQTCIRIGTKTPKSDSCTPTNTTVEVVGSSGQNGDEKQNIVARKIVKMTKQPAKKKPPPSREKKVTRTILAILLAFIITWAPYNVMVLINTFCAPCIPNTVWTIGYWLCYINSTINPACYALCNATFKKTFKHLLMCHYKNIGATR

[3] = target: T3, Muscarinic acetylcholine receptor M2 (Homo sapiens, UniProt P08172); assay: In vitro affinity for muscarinic M2 receptor.
T3 sequence (P08172 whole entry): T2 sequence (whole entry)

[4] = target: T1, Muscarinic acetylcholine receptor M3; assay: In vitro affinity for muscarinic M3 receptor.
Target sequence in this assay (P20309 whole entry): as the sequence (P20309 whole entry, looked up) above

[5] = target: T1, Muscarinic acetylcholine receptor M3; assay: Displacement of [3H]N-methylscopolamine from membrane preparation from CHO-K1 cells for Muscarinic acetylcholine receptor M3; assay type: cell membranes; conditions: concentration not given here
Target sequence in this assay (P20309 whole entry, looked up): as the sequence (P20309 whole entry, looked up) above

[6] = target: T2, Muscarinic acetylcholine receptor M2 (Homo sapiens); assay: Displacement of [3H]N-methylscopolamine from membrane preparation from CHO-K1 cells for Muscarinic acetylcholine receptor M2; assay type: cell membranes; conditions: concentration not given here

For `O=C(c1ccccc1)N(C1CCC1)C1CCN(Cc2ccccc2)CC1`, the inhibition [1] was 20% and the inhibition [2] was 20%.

With `O=C(c1ccccc1)N(Cc1ccccc1)C1CCN(Cc2ccccc2)CC1` the Ki [3] was 0.631 µM and the Ki [4] was 0.158 µM.

In the case of `O=C(c1cccs1)N(C1CCC1)C1CCN(Cc2ccccc2)CC1`, the inhibition [5] is reported as < 20% and the inhibition [6] is reported as < 20%.
